Experimental data taken from patent EP2457900A1, “New pyrazole derivatives having CRTh2 antagonistic behaviour” (Almirall, S.A., priority 2010, dated 2012).

Target: T1, CRTh2 receptor (Homo sapiens, UniProt Q9Y5Y4)
T1 construct: expressed in transfected cells; host or cells: CHO.K1 cells (membranes)
T1 sequence (Q9Y5Y4 1-395): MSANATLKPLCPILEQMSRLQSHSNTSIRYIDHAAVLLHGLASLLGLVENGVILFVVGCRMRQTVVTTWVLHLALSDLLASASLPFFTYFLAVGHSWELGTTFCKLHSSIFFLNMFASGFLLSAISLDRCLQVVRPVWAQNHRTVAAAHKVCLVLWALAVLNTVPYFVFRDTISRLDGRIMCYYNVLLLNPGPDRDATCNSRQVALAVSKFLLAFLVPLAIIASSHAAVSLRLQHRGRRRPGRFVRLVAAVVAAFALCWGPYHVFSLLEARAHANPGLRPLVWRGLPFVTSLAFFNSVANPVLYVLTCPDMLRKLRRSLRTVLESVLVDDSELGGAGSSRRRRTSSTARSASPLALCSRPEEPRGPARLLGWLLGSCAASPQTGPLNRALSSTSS
Assay: CRTh2 GTPγS antagonism binding assay
Format: biochemical
Conditions: membranes from CHO.K1 cells stably overexpressing the CRTh2 receptor; [35S]-GTPγS 0.1 nM; PGD2 at 50 nM (EC80); compound pre-incubated 1 h; read-out: GTPγ Binding
Procedure: CRTh2 GTPγS antagonism binding assay
The assay is performed using membranes obtained from CHO.K1 cells stably overexpressing the CRTh2 receptor and [^35S]-GTPγS as radioligand. Assay is performed pre-incubating 4-8 µg of membranes per well with the compound to be tested for 1 h, followed by incubation with PGD2 at 50 nM (EC80), 0.1 nM [^35S]-GTPγS in incubation buffer (20 mM HEPES, 10 mM MgCl2, 100 mM NaCl, 10 µM GDP, 10 µg/ml Saponine and 0.2% BSA) for 2 h at room temperature. The reaction is terminated by filtering in GF/C plates pre-treated with 20 mM HEPES, 10 mM MgCl2, 100 mM NaCl and washing 6 times with wash buffer (20 mM NaH2PO4, 20 mM Na2HPO4). After washing, plates are dried and scintillation buffer Optiphase added. The radioactivity retained in the filter is counted using a Microbeta liquid scintillation counter.

Row | Structure (SMILES) | IC50 [nM]
1 | Cc1ccc(NC(=O)Nc2cccc(Cn3nc(C)c(CC(=O)O)c3C)c2)cc1 [Example 4, {3,5-Dimethyl-1-[3-({[(4-methylphenyl)amino]carbonyl}amino)benzyl]-1H-pyrazol-4-yl}acetic acid] | 370
2 | Cc1nn(-c2cccc(NC(=O)[C@@H]3C[C@H]3c3ccccc3)c2)c(C)c1CC(=O)O (relative stereo) [Example 1, {3,5-Dimethyl-1-[3-({[trans-2-phenylcyclopropyl]carbonyl}amino)phenyl]-1H-pyrazol-4-yl}acetic acid] | 250
3 | Cc1c(CC(=O)O)c(-c2ccccc2)nn1Cc1ccccc1S(=O)(=O)c1ccccc1 [Example 15, {5-Methyl-3-phenyl-1-[2-(phenylsulfonyl)benzyl]-1H-pyrazol-4-yl}acetic acid] | 6.8
4 | Cc1c(CC(=O)O)c(=O)[nH]n1Cc1ccccc1S(=O)(=O)c1ccccc1 [Example 29, {3-Hydroxy-5-methyl-1-[2-(phenylsulfonyl)benzyl]-1H-pyrazol-4-yl}acetic acid] | 160
5 | Cc1c(CC(=O)O)c(-c2ccccc2)nn1Cc1ccccc1Cc1ccccc1 [Example 24, [1-(2-Benzylbenzyl)-5-methyl-3-phenyl-1H-pyrazol-4-yl]acetic acid] | 105

Results, then the compound that gave them:

Row | IC50 [nM] | Structure (SMILES)
6 | 86 | Cc1nn(Cc2ccccc2S(=O)(=O)c2ccccc2)c(C)c1CC(=O)O [Example 13, {3,5-Dimethyl-1-[2-(phenylsulfonyl)benzyl]-1H-pyrazol-4-yl}acetic acid]
7 | 66 | Cc1c(CC(=O)O)c(-c2ccccc2)nn1Cc1ccccc1S(=O)(=O)N1CCCCC1 [Example 30, {5-Methyl-3-phenyl-1-[2-(piperidin-1-ylsulfonyl)benzyl]-1H-pyrazol-4-yl}acetic acid]
8 | 94 | Cc1c(CC(=O)O)c(-c2ccc(Cl)cc2)nn1Cc1ccccc1S(=O)(=O)N1CCOCC1 [Example 25, {3-(4-Chlorophenyl)-5-methyl-1-[2-(morpholin-4-ylsulfonyl)benzyl]-1H-pyrazol-4-yl}acetic acid]
9 | 74 | Cc1c(CC(=O)O)c(-c2ccccc2)nn1Cc1ccccc1S(=O)(=O)N1CCOCC1 [Example 23, {5-Methyl-1-[2-(morpholin-4-ylsulfonyl)benzyl]-3-phenyl-1H-pyrazol-4-yl}acetic acid]
10 | 24 | Cc1c(CC(=O)O)c(-c2ccc(Cl)cc2)nn1Cc1ccccc1S(=O)(=O)c1ccccc1 [Example 26, {3-(4-Chlorophenyl)-5-methyl-1-[2-(phenylsulfonyl)benzyl]-1H-pyrazol-4-yl}acetic acid]
